Our source for the IC50 and Activity values is ChEMBL document CHEMBL2390851, “Synthesis and preliminary in vitro biological evaluation of 7α-testosterone-chlorambucil hybrid designed for the treatment of prostate cancer” (Eur J Med Chem, 2013).

Calls of active or inactive are those of the source. No cut-off for these calls is given here.

What all share (type): functional, cell-based
Experiment [1] deals with LNCaP. As to the kind of experiment: Cytotoxicity against human LNCAP cells expressing androgen receptor after 72 hrs by MTT assay. A general note: Formazan colour is commonly taken as a measure of viable cells.
The subject of experiment [2] is PC-3. As to the kind of experiment: Cytotoxicity against androgen receptor deficient human PC3 cells at 160 uM after 72 hrs by MTT assay.
Experiment [3] deals with PC-3. As to the kind of experiment: Cytotoxicity against androgen receptor deficient human PC3 cells after 72 hrs by MTT assay. Particulars: PC-3, 72 h.

Usually IC50 stands for the midpoint of a concentration-inhibition curve. For the compound `C[C@]12CC[C@H]3[C@@H]([C@H](C/C=C/COC(=O)CCCc4ccc(N(CCCl)CCCl)cc4)CC4=CC(=O)CC[C@@]43C)[C@@H]1CC[C@@H]2O` (mixture of isomers), the IC50 in experiment [1] stood at 101 µM. For the same compound, in experiment [2], the outcome was inactive.
Consider `O=C(O)CCCc1ccc(N(CCCl)CCCl)cc1` [CHLORAMBUCIL], for which the figures for the IC50 in experiment [3] and in experiment [1] were 131 µM and 124 µM, respectively.
